Data taken from patent US4221907A, “Substituted O-α-D and O-β-D-multi-galactopyranosyl and glucopyranosyl 1→4 and 1→6 galactopyranosyl 1→6 α-D-glucopyranoses” (American Cyanamid Company, priority 1979, dated 1980).
Counter-ions that a name gives are not always drawn.

Legend:
[1] = target: human C1 (Homo sapiens, UniProt P09871); test: Test Code 026 (C1 inhibitor): activated human C1 destroys fluid phase human C2 in presence of C4; format: biochemical; conditions: activity in wells, twofold serial dilution; higher well number indicates higher activity
Excerpt: (§1) An active inhibitor protects C2 from C1 and C4; (ii) Test Code 035 (C3-C9 inhibitor)--This test determines the ability of the late components of human complement (C3-C9) to lyse EAC 142 in the presence of appropriate dilutions of the test compound. An active inhibitor protects EAC 142 from lysis by human C3-C9; (iii) Test Code 036 (C-Shunt inhibitor)--In this test human erythrocytes rendered fragile are lysed in autologous serum via the shunt pathway activated by cobra venom factor in the presence of appropriate dilutions of the test compound. Inhibition of the shunt pathway results in failure of lysis; (iv) Forssman Vasculitis Test--Here, the well known complement dependent lesion, Forssman vasculitis, is produced in guinea pigs by intradermal injection of rabbit anti-Forssman antiserum. The lesion is measured in terms of diameter, edema and hemorrhage and the extent to which a combined index of these is inhibited by prior intraperitoneal injection of the test compound at 200 mg/kg is then reported, unless otherwise stated; (v) Forssman Shock Test--Lethal shock is produced in guinea pigs by an i.v. injection of anti-Forssman antiserum and the harmonic mean death time of treated guinea pigs is compared with that of the simultaneous controls; (vi) Complement Level Reduction Test--In this test, the above dosed guinea pigs, or others are bled for serum and the complmenet level is determined in undiluted serum by the capillary tube method of U.S. Pat. No. 3,876,376 and compared to undosed control guinea pigs; (vii) Cap 50 Test--Here, appropriate amounts of the test compound are added to a pool of guinea pig serum in vitro, after which the undiluted serum capillary tube assay referred to above is run. The concentration of compound inhibiting 50% is reported.
(§2) **Activity in wells, a serial dilution assay; higher well number indicate
(§3) higher activity. The serial dilutions are twofold-

[2] = system: whole complement; test: In vivo activity (Guinea Pig): serum whole complement by capillary tube assay after dosing; conditions: Intraperitoneal, 200 mg/kg
[3] = system: human complement (C3-C9); test: Test Code 035 (C3-C9 inhibitor): lysis of EAC 142 by late components of human complement; format: biochemical; conditions: activity in wells, twofold serial dilution; higher well number indicates higher activity
Excerpt: as §1, §2, §3

[4] = system: shunt pathway; test: Test Code 036 (C-Shunt inhibitor): lysis of human erythrocytes in autologous serum via shunt pathway activated by cobra venom factor; format: biochemical; conditions: activity in wells, twofold serial dilution; higher well number indicates higher activity
Excerpt: as §1, §2, §3

human C1, sequence (P09871 16-688): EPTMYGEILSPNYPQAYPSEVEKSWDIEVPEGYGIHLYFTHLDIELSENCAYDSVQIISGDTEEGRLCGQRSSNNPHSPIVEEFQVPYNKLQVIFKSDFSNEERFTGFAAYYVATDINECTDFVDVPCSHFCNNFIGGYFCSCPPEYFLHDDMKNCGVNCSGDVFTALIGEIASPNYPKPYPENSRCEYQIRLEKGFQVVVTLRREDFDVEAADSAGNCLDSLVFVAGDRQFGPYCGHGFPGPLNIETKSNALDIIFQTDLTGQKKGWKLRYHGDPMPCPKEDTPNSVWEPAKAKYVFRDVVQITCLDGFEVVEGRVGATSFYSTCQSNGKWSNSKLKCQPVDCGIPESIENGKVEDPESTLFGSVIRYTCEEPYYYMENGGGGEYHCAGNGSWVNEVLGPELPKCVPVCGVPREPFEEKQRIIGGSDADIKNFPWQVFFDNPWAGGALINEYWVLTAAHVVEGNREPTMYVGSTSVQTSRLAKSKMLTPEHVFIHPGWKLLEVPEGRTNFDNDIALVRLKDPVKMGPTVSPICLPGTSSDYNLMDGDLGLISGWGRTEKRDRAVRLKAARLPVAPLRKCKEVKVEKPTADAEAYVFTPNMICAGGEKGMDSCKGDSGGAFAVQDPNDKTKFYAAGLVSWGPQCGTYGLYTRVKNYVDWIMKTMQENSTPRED
human C1, sequence (P00736 18-705 partner): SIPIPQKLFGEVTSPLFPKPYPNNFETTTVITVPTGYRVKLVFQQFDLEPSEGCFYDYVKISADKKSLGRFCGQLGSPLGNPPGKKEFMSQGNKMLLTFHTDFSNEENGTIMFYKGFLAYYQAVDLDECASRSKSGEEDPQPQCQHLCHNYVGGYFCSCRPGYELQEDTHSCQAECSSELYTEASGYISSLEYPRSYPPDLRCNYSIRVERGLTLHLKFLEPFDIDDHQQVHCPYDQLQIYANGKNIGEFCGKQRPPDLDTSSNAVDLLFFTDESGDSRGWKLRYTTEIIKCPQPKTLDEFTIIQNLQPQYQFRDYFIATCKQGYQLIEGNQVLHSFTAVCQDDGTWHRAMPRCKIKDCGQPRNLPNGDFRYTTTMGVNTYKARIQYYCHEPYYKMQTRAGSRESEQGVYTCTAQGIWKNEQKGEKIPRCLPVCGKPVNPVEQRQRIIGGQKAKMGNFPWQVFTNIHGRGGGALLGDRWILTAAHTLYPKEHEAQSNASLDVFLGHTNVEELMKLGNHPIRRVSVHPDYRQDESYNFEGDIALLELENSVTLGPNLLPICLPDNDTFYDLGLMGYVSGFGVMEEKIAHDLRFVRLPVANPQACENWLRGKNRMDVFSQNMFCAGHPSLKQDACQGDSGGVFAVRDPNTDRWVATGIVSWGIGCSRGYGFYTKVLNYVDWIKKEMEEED
human C1, sequence (P02745 23-245 partner): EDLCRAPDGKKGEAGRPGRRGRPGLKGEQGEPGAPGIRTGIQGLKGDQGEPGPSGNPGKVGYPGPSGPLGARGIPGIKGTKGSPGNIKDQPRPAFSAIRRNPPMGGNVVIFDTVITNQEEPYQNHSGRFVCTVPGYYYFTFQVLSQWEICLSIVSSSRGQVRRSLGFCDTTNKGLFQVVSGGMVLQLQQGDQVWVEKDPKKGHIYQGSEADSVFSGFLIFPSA
human C1, sequence (P02746 28-253 partner): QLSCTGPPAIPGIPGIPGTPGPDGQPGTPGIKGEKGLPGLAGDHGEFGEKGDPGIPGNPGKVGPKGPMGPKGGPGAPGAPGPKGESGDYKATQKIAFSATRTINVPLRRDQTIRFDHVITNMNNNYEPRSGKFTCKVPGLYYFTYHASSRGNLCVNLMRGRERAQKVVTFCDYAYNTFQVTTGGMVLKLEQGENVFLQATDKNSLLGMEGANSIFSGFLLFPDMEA
human C1, sequence (P02747 29-245 partner): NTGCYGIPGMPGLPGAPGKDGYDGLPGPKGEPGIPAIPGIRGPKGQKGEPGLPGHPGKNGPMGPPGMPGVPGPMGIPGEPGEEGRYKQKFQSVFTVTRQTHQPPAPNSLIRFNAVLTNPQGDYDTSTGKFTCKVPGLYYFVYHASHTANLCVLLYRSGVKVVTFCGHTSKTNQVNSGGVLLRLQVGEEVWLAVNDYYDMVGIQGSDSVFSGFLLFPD

SMILES | C1 026 Wells [1] | In vivo Activity (Guinea Pig) % Inhibition ([2]; 30 min) [%] | In vivo Activity (Guinea Pig) % Inhibition ([2]; 60 min) [%] | In vivo Activity (Guinea Pig) % Inhibition ([2]; 120 min) [%] | C-Late 035 Wells [3] | Shunt Inhibition 036 Wells [4]
O=S(=O)(O)OC[C@H]1O[C@H](OC[C@H]2O[C@H](OS(=O)(=O)O)[C@H](OS(=O)(=O)O)[C@@H](OS(=O)(=O)O)[C@@H]2OS(=O)(=O)O)[C@H](OS(=O)(=O)O)[C@@H](OS(=O)(=O)O)[C@H]1OS(=O)(=O)O | +8 Wells | – | – | – | – | –
O=S(=O)(O)OC[C@H]1O[C@@H](OC[C@H]2O[C@H](OC[C@H]3O[C@H](OS(=O)(=O)O)[C@H](OS(=O)(=O)O)[C@@H](OS(=O)(=O)O)[C@@H]3OS(=O)(=O)O)[C@H](OS(=O)(=O)O)[C@@H](OS(=O)(=O)O)[C@H]2OS(=O)(=O)O)[C@H](OS(=O)(=O)O)[C@@H](OS(=O)(=O)O)[C@H]1OS(=O)(=O)O [drawing 6, O-β-D-galactopyranosyl(1→6)-O-α-D-galactopyranosyl(1→6)-α-D-glucopyranose [gal 1β,6 gal 1α,6 glc] undecakis (H-sulfate), undecasalt with trimethylamine] | +9 Wells | – | – | – | – | –
O=S(=O)(O)OC[C@H]1O[C@@H](OC[C@H]2O[C@H](OC[C@H]3O[C@H](OS(=O)(=O)O)[C@H](OS(=O)(=O)O)[C@@H](OS(=O)(=O)O)[C@@H]3OS(=O)(=O)O)[C@H](OS(=O)(=O)O)[C@@H](OS(=O)(=O)O)[C@H]2OS(=O)(=O)O)[C@H](OS(=O)(=O)O)[C@@H](OS(=O)(=O)O)[C@H]1OS(=O)(=O)O [drawing 7, O-β-D-galactopyranosyl(1→6)-O-α-D-galactopyranosyl(1→6)-α-D-glucopyranose [gal 1β,6 gal 1α,6 glc] undecakis (H-sulfate), undecasodium salt] | +9 Wells | -30 | -17 | -56 | – | –
O=S(=O)(O)OC[C@H]1O[C@H](OC[C@H]2O[C@@H](OC[C@H]3O[C@H](OC[C@H]4O[C@H](OS(=O)(=O)O)[C@H](OS(=O)(=O)O)[C@@H](OS(=O)(=O)O)[C@@H]4OS(=O)(=O)O)[C@H](OS(=O)(=O)O)[C@@H](OS(=O)(=O)O)[C@H]3OS(=O)(=O)O)[C@H](OS(=O)(=O)O)[C@@H](OS(=O)(=O)O)[C@@H]2OS(=O)(=O)O)[C@H](OS(=O)(=O)O)[C@@H](OS(=O)(=O)O)[C@H]1OS(=O)(=O)O [drawing 8, O-α-D-galactopyranosyl(1→6)-O-β-D-glucopyranosyl(1→6)-O-α-D-galactopyranosyl(1→6)-α-D-glucopyranose [gal 1α,6 glc 1β,6 gal 1α,6 glc] tetradecakis (H-sulfate), tetradecasalt with trimethylamine] | +9 Wells | – | – | – | +1 Wells | +5 Wells
O=S(=O)(O)OC[C@H]1O[C@@H](OC[C@H]2O[C@H](OC[C@H]3OC(OS(=O)(=O)O)[C@H](OS(=O)(=O)O)[C@@H](OS(=O)(=O)O)[C@@H]3OS(=O)(=O)O)[C@H](OS(=O)(=O)O)[C@@H](OS(=O)(=O)O)[C@H]2OS(=O)(=O)O)[C@H](OS(=O)(=O)O)[C@@H](OS(=O)(=O)O)[C@@H]1O[C@H]1O[C@H](COS(=O)(=O)O)[C@@H](OS(=O)(=O)O)[C@H](OS(=O)(=O)O)[C@H]1OS(=O)(=O)O (stereo partly drawn) [drawing 10, O-α-D-glucopyranosyl(1→4)-O-β-D-glucopyranosyl(1→6)-O-α-D-galactopyranosyl(1→6)-D-glucopyranose [glc 1α,4 glc 1β,6 gal 1α,6 glc] tetradecakis (H-sulfate), tetradecasalt with trimethylamine] | +9 Wells | – | – | – | +1 Wells | +5 Wells
O=S(=O)(O)OC[C@H]1O[C@@H](OC[C@H]2O[C@H](OC[C@H]3O[C@H](OS(=O)(=O)O)[C@H](OS(=O)(=O)O)[C@@H](OS(=O)(=O)O)[C@@H]3OS(=O)(=O)O)[C@H](OS(=O)(=O)O)[C@@H](OS(=O)(=O)O)[C@H]2OS(=O)(=O)O)[C@H](OS(=O)(=O)O)[C@@H](OS(=O)(=O)O)[C@@H]1O[C@@H]1O[C@H](COS(=O)(=O)O)[C@@H](OS(=O)(=O)O)[C@H](OS(=O)(=O)O)[C@H]1OS(=O)(=O)O [drawing 12, O-β-D-glucopyranosyl(1→4)-O-β-D-glucopyranosyl(1→6)-O-α-D-galactopyrranosyl(1→6)-α-D-glucopyranose [glc 1β,4 glc 1β,6 gal 1α,6 glc] tetradecakis (H-sulfate), tetradecasalt with trimethylamine] | +9 Wells | – | – | – | – | +4 Wells
O=S(=O)(O)OC[C@H]1O[C@@H](OC[C@H]2O[C@H](OC[C@H]3O[C@H](OS(=O)(=O)O)[C@H](OS(=O)(=O)O)[C@@H](OS(=O)(=O)O)[C@@H]3OS(=O)(=O)O)[C@H](OS(=O)(=O)O)[C@@H](OS(=O)(=O)O)[C@H]2OS(=O)(=O)O)[C@H](OS(=O)(=O)O)[C@@H](OS(=O)(=O)O)[C@@H]1O[C@@H]1O[C@H](COS(=O)(=O)O)[C@@H](OS(=O)(=O)O)[C@H](OS(=O)(=O)O)[C@H]1OS(=O)(=O)O [drawing 13, O-β-D-glucopyranosyl(1→4)-O-β-D-glucopyranosyl(1→6)-O-α-D-galactopyranosyl(1→6)-α-D-glucopyranose [glc 1β,4 glc 1β,6 gal 1α,6 glc] tetradecakis (H-sulfate), tetradecasodium salt] | +9 Wells | -25 | -34 | -60 | – | –
O=S(=O)(O)OC[C@H]1O[C@@H](OC[C@H]2O[C@H](OC[C@H]3O[C@H](OS(=O)(=O)O)[C@H](OS(=O)(=O)O)[C@@H](OS(=O)(=O)O)[C@@H]3OS(=O)(=O)O)[C@H](OS(=O)(=O)O)[C@@H](OS(=O)(=O)O)[C@H]2OS(=O)(=O)O)[C@H](OS(=O)(=O)O)[C@@H](OS(=O)(=O)O)[C@@H]1O[C@H]1O[C@H](COS(=O)(=O)O)[C@@H](O[C@H]2O[C@H](COS(=O)(=O)O)[C@@H](OS(=O)(=O)O)[C@H](OS(=O)(=O)O)[C@H]2OS(=O)(=O)O)[C@H](OS(=O)(=O)O)[C@H]1OS(=O)(=O)O [drawing 14, O-α-D-glucopyranosyl(1→4)-O-α-D-glucopyranosyl(1→4)-O-β-D-glucopyranosyl(1→6)-O-α-D-galactopyranosyl(1→6)-α-D-glucopyranose [(glc 1α,4)2 glc 1β,6 gal 1α,6 glc] heptadecakis(H-sulfate), heptadecasalt with trimethylamine] | +9 Wells | – | – | – | +1 Wells | –
O=S(=O)(O)OC[C@H]1O[C@@H](OC[C@H]2O[C@H](OC[C@H]3O[C@H](OS(=O)(=O)O)[C@H](OS(=O)(=O)O)[C@@H](OS(=O)(=O)O)[C@@H]3OS(=O)(=O)O)[C@H](OS(=O)(=O)O)[C@@H](OS(=O)(=O)O)[C@H]2OS(=O)(=O)O)[C@H](OS(=O)(=O)O)[C@@H](OS(=O)(=O)O)[C@@H]1O[C@H]1O[C@H](COS(=O)(=O)O)[C@@H](O[C@H]2O[C@H](COS(=O)(=O)O)[C@@H](OS(=O)(=O)O)[C@H](OS(=O)(=O)O)[C@H]2OS(=O)(=O)O)[C@H](OS(=O)(=O)O)[C@H]1OS(=O)(=O)O [drawing 15, O-α-D-glucopyranosyl(1→4)-O-α-D-glucopyranosyl(1→4)-O-β-D-glucopyranosyl(1→6)-O-α-D-galactopyranosyl(1→6)-α-D-glucopyranose [(glc 1α,4)2 glc 1β,6 gal 1α,6 glc] heptadecakis(H-sulfate), heptadecasodium salt] | +9 Wells | – | – | – | +2 Wells | +6 Wells
